Experimental findings from patent US20260042769A1, “TRIARYL AGONISTS OF ALPHA-2 ADRENERGIC RECEPTORS” (ALCEPTOR THERAPEUTICS, INC., priority 2023, published 2026) are described below.

This experiment addresses T1, human ADRA2B receptor (Homo sapiens, UniProt P18089).
T1 construct: expressed in transfected cells
T1 sequence (P18089 1-450): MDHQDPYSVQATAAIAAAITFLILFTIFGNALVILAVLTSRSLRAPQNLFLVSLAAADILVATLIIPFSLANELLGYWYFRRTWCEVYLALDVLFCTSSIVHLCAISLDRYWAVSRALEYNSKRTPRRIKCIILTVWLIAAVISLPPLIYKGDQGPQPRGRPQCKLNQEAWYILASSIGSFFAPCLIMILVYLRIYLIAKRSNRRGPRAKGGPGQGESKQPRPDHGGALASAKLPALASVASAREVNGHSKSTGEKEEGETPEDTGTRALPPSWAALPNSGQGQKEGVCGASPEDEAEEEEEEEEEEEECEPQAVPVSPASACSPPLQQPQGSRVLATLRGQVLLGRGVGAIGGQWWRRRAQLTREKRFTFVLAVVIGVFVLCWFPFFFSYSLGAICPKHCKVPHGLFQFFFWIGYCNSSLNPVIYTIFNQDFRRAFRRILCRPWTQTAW
The experiment is described as follows: ADRA2B arrestin agonist assay. The class given is cell-based. To be noted: read-out: Beta-Arrestin - Human Alpha2B EC50. The method, boiled down:
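CHO-K1 cells stably expressing human ADRA2B, thawed from frozen stock and plated overnight, were treated with agonist for 2 h at 37 °C. Arrestin recruitment detected by luminescence after 2 h with detection reagents at room temperature.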

[1] abbreviates: CHO-K1 cells stably expressing human ADRA2B.

Structures are written as SMILES. Read-outs that look alike come from different tables or passages of the source.

As for `Cc1nccc(CC(c2c[nH]cn2)c2cccc3cccnc23)n1` (centres unmarked) [Compound 341, 4-[2-(4-imidazolyl)-2-(8-quinolyl)ethyl]-2-methylpyrimidine], the EC50 under setting [1] is below 0.01 µM. On the same count and under the same terms, with `COc1c(C)cccc1C(Cc1cc(C)ncn1)c1c[nH]cn1` (centres unmarked) [Compound 276, 4-[2-(4-imidazolyl)-2-(2-methoxy-3-tolyl)ethyl]-6-methylpyrimidine] the figure was 0.05 to 0.5 µM. With `Cc1cccc(C(Cc2ccnn2C)c2c[nH]cn2)c1Cl` (centres unmarked) [Compound 399, 5-[2-(2-chloro-3-tolyl)-2-(4-imidazolyl)ethyl]-1-methylpyrazole], under setting [1], the concentration giving a half-maximal response (EC50) was below 0.01 µM. Still for that read-out and setting: the result for `Cc1cccc(C(Cn2cccn2)c2c[nH]cn2)c1C` (centres unmarked) [Compound 406, 1-[2-(4-imi-dazolyl)-2-(2,3-xylyl)ethyl]pyra-zole] reads 0.01 to 0.05 µM; that for `Cc1nsc(CC(c2c[nH]cn2)c2cccc(C)c2C)n1` (centres unmarked) [Compound 264, 5-[2-(4-imidazolyl)-2-(2,3-xylyl)ethyl]-3-methyl-1,2,4-thiadiazole], 0.05 to 0.5 µM. Still for that read-out and setting: with `COc1nccc(CC(c2c[nH]cn2)c2cccc(OC)c2F)n1` (centres unmarked) [Compound 181, 4-[2-(2-fluoro-3-methoxyphenyl)-2-(4-imidazolyl)ethyl]-2-methoxypyrimidine] the figure was 0.01 to 0.05 µM. Still for that read-out and setting: with `Cc1cccc([C@@H](Cc2cn(C)nn2)c2c[nH]cn2)c1F` [Compound 249, 4-[(R)-2-(2-fluoro-3-tolyl)-2-(4-imidazolyl)ethyl]-1-methyl-1H-1,2,3-triazole] the figure was below 0.01 µM.

Take `COc1c(C)cccc1C(Cc1cocn1)c1c[nH]cn1` (centres unmarked) [Compound 388, 4-[2-(4-imidazolyl)-2-(2-methoxy-3-tolyl)ethyl]-1,3-oxazole-formic acid (1/1)]: the half-maximal effective concentration (EC50) under setting [1] was above 0.5 µM. Still for that read-out and setting: with `Cc1cccc(C(Cc2cn(C3CC3)nn2)c2c[nH]cn2)c1C` (centres unmarked) [Compound 404, 1-cyclopropyl-4-[2-(4-imi-dazolyl)-2-(2,3-xylyl)ethyl]-1H-1,2,3-triazole] the figure was below 0.01 µM; with `Cc1cccc([C@H](Cc2cccc(C(C)(C)O)n2)c2c[nH]cn2)c1C` [Compound 305, 2-{6-[(S)-2-(4-imidazolyl) 2-(2,3-xylyl)ethyl]-2-pyridyl}-2-propanol], above 0.5 µM. Still for that read-out and setting: with `Cn1nccc1CC(c1c[nH]cn1)c1cccc2ccn(C)c12` (centres unmarked) [Compound 267, 5-[2-(4-imidazolyl)-2-(1-methyl-7-indolyl)ethyl]-1-methylpyrazole] the figure was 0.05 to 0.5 µM; with `c1cc2c(c([C@H](Cc3cocn3)c3c[nH]cn3)c1)OCC2` [Compound 372, 4-[(S)-2-(2,3-dihydro-1-benzofuran-7-yl)-2-(4-imidazolyl)ethyl] 1,3-oxazole], 0.05 to 0.5 µM.

As to `COc1nccc(CC(c2c[nH]cn2)c2ccc(C)c(F)c2F)n1` (centres unmarked) [Compound 189, 4-[2-(2,3-difluoro-4-tolyl)-2-(4-imidazolyl)ethyl]-2-methoxypyrimidine], the EC50 under setting [1] was above 0.5 µM.

In the case of `COc1c(Cl)cccc1C(Cc1ccnc(C)n1)c1c[nH]cn1` (centres unmarked) [Compound 187, 4-[2-(3-chloro-2-methoxyphenyl)-2-(4-imidazolyl)ethyl]-2-methylpyrimidine], under setting [1], the EC50 was 0.05 to 0.5 µM.

With `COCc1nccc(C[C@@H](c2c[nH]cn2)c2cccc(C)c2C)n1` [Compound 345, 4-[(R)-2-(4-imidazolyl)-2-(2,3-xylyl)ethyl]-2-(methoxymethyl)pyrimidine], under setting [1], the EC50 is below 0.01 µM. For `COc1nccc(CC(c2c[nH]cn2)c2ccccc2C(F)(F)F)n1` (centres unmarked) [Compound 354, 4-{2-(4-imidazolyl)-2-[o-(trifluoromethyl)phenyl]eth-yl}-2-methoxypyrimidine], under setting [1], the EC50 was above 0.5 µM. On the same count and under the same terms, with `Cc1cccc([C@H](Cc2cnco2)c2c[nH]cn2)c1C` [Compound 364, 5-[(S)-2-(4-imidazolyl)-2-(2,3-xylyl)ethyl]-1,3-oxazole] the figure was below 0.01 µM.

Take `CC(C)n1cc(C[C@@H](c2c[nH]cn2)c2cccc3c2OCC3)cn1` [Compound 297, 4-[(R)-2-(2,3-dihydro-1-benzofuran-7-yl)-2-(4-imidazolyl)ethyl] 1-isopropylpyrazole]: under setting [1], the EC50 is above 0.5 µM.

Regarding `Cc1cccc(C(Cc2ccnc(F)c2)c2c[nH]cn2)c1F` (centres unmarked) [Compound 321, 4-[2-(2-fluoro-4-pyridyl)-1-(2-fluoro-3-tolyl)ethyl]imidazole], the EC50 under setting [1] was below 0.01 µM. Still for that read-out and setting: the result for `Cc1cccc(C(Cc2nc(CO)ccc2F)c2c[nH]cn2)c1C` (centres unmarked) [Compound 317, {5-fluoro-6-[2-(4-imidazolyl)-2-(2,3-xylyl)ethyl]-2-pyridyl}methanol] reads below 0.01 µM; that for `Cc1cccc(CC(c2c[nH]cn2)c2cccc(C)c2F)n1` (centres unmarked) [Compound 259, 4-[1-(2-fluoro-3-tolyl)-2-(6-methyl-2-pyridyl)ethyl]imida-zole], 0.01 to 0.05 µM; that for `Cc1cccc([C@@H](Cc2ccnc(C3CC3)n2)c2c[nH]cn2)c1C` [Compound 169, 4-[(R)-2-(4-imidazolyl)-2-(2,3-xylyl)ethyl]-2-cyclopropylpyrimidine], below 0.01 µM.

For `Cn1ncc2c(C(Cc3cccc(CF)n3)c3c[nH]cn3)cccc21` (centres unmarked) [Compound 303, 4-{2-[6-(fluoromethyl)-2-pyridyl]-1-(4-imidazolyl)ethyl}-1-methyl-1H-indazole], the EC50 under setting [1] fell in the range of 0.01 to 0.05 µM. On the same count and under the same terms, the result for `Cc1cccc(C(Cc2cocn2)c2c[nH]cn2)c1F` (centres unmarked) [Compound 368, 4-[2-(2-fluoro-3-tolyl)-2-(4-imidazolyl)ethyl]-1,3-oxazole] reads 0.05 to 0.5 µM.

As to `Cc1cccc([C@@H](Cc2ccnc(C(C)(C)F)n2)c2c[nH]cn2)c1C` [Compound 205, 4-[(R)-2-(4-imidazolyl)-2-(2,3-xylyl)ethyl]-2-(1-fluoro-1-methylethyl)pyrimidine], the EC50 under setting [1] was below 0.01 µM. `Cc1cc(CC(c2c[nH]cn2)c2cccc(C)c2C)nc(C)n1` (centres unmarked) [Compound 316, 4-[2-(4-imidazolyl)-2-(2,3-xylyl)ethyl]-2,6-dimethylpyrimidine]: the EC50 under setting [1] was below 0.01 µM. Still for that read-out and setting: the result for `COCn1ccc(C[C@H](c2c[nH]cn2)c2cccc(C)c2C)n1` [Compound 278, 3-[(S)-2-(4-imidazolyl)-2-(2,3-xylyl)ethyl]-1-(methoxymethyl)pyrazole] reads below 0.01 µM; that for `Cc1cccc(C(Cc2ccncc2F)c2c[nH]cn2)c1C` (centres unmarked) [Compound 394, 4-[2-(3-fluoro-4-pyridyl)-1-(2,3-xylyl)ethyl]imidazole], below 0.01 µM. On the same count and under the same terms, the result for `Cc1nc(C[C@H](c2c[nH]cn2)c2cccc(C)c2C)c(C)o1` [Compound 380, 4-[(S)-2-(4-imidazolyl)-2-(2,3-xylyl)ethyl]-2,5-dimethyl-1,3-oxazole] reads above 0.5 µM. On to `Cc1cccc([C@@H](Cc2ccncc2)c2c[nH]cn2)c1C` [Compound 320, 4-[(R)-2-(4-pyridyl)-1-(2,3-xylyl)ethyl]imidazole], for which the 50% effective concentration (EC50) was above 0.5 µM. Regarding `Cc1cccc([C@@H](Cc2cn(C)nn2)c2c[nH]cn2)c1C` [Compound 239, 4-[(R)-2-(4-imidazolyl)-2-(2,3-xylyl)ethyl]-1-methyl-1H-1,2,3-triazole], the EC50 under setting [1] is above 0.5 µM. Same read-out and setting: with `Cc1cccc([C@H](Cc2ccnc(C3CC3)n2)c2c[nH]cn2)c1C` [Compound 168, 4-[(S)-2-(4-imidazolyl)-2-(2,3-xylyl)ethyl]-2-cyclopropylpyrimidine] the figure was 0.01 to 0.05 µM.
